What was measured:
[1] = tested on: Salmonella enterica ATCC 14028; assay: MIC assay (microbroth dilution) ± 25 μM EPI; type: cell-based; details: for MIC (μg/ml) ± EPI: MBX2319: + 25 μM MBX2319; for MIC (μg/ml) ± EPI: PAβN: + 25 μM PAβN; for MIC: ATCC14028, no EPI, read-out: MIC (μg/ml) ± EPI: None
Source text: (§1) • Strains and Reagents. The following strains were obtained from the Keio collection (Baba, et al.: Construction of Escherichia coli K-12 in-frame, single-gene knockout mutants: the Keio collection. In Mol Syst Biol, vol. 2, pp. 2006 0008, (2006)): JW0451 (ΔacrB::kan), JW5503 (ΔtolC::kan), JW3234 (ΔacrF::kan), JW2661 (ΔemrB::kan), JW0863 (ΔmacB::kan). The deletion mutations in each of these strains were transferred to AB1157 using P1 phage transduction (see Table 1). The construction of the E. coli cell-based reporter strain (SOS-XXX) that was used for high throughput screening is described in detail in the supplementary information. […] Irgasan was a generous gift from Ciba Speciality Chemicals, Inc. (High Point, N.C.). Hoechst 33342 (H33342) was purchased from Molecular Probes (Eugene, Oreg.). […] Luria Broth (Miller) and agar were purchased as prepared dehydrated media from Becton Dickenson (Franklin Lakes, N.J.). The compound libraries used in high-throughput screens were purchased from Chembridge (San Diego, Calif.), ChemDiv (San Diego, Calif.), and TimTec (Newark, Del.). MBX2319 was synthesized by Microbiotix, Inc. • Antibacterial Activity Assays. The minimal inhibitory concentration (MIC) of antibacterial agents and biocides were determined using the microbroth dilution method essentially as described in the CLSI protocol M7-A7 (CLSI: Method for dilution antimicrobial susceptibility testing for bacteria that grow aerobically; Approved standard-document M7-A7. In Clinical and Laboratory Standards Institute document M7-A7, Clinical and Laboratory Standards Institute, Wayne, Pa., (2006)), with the following exceptions. LB media was used instead of MHB. […] The final concentration of DMSO in each assay was 2%. […] MIC assays were performed in triplicate and the geometric mean was calculated. Checkerboard MIC assays using an EPI and an antibacterial agent were performed essentially as described (Pillai, et al.: Antimicrobial Combinations. In Antibiotics in Laboratory Medicine, ed. by V. Lorian, pp. 365-440, Lippincott Williams & Wilkins, Philadelphia, Pa., (2005)), with the same modifications used for the MIC assays described above. • Time-Kill Assays. Killing curve assays were performed essentially as described (Pillai, et al.: Antimicrobial Combinations. In Antibiotics in Laboratory Medicine, ed. by V. Lorian, pp. 365-440, Lippincott Williams & Wilkins, Philadelphia, Pa., (2005)). Exponential bacterial cultures grown in LB were diluted to a cell density of ˜1×10^7 in LB followed by addition of CIP and/or an EPI. Viability was monitored over 2-4 hours by making serial dilutions in saline and spotting 5 μl of each dilution onto the surface of an LB agar plate in triplicate. Colonies were counted after the plates were incubated at 37° C. for 16-18 hr, colony forming units (CFU) per ml were calculated, and the average and standard deviation for the three replicates was determined. For treatments that decreased CFU/ml below the limit of detection for the spot plating method, the 100 μl samples were diluted into 5 ml LB top agar, were poured onto LB agar plates, and incubated for 18 hr at 37° C. To calculate the fraction of the control for each sample, the average CFU/ml values for treated samples were divided by those from the same sample at 0 h (time=0). Each experiment was repeated at least three times, and a representative experiment is shown. • H33342 Accumulation Assay. The rate of accumulation of the fluorescent dye Hoechst 33342 (H33342), which is a substrate of a wide variety of bacterial efflux pumps (van den Berg van Saparoea, et al., Biochemistry, vol. 44, pp. 16931-16938, (2005)), can be used to estimate the activity of the major efflux pumps in E. coli and many other bacterial species. The H33342 accumulation assay was used to evaluate the effect of EPIs on the activity of the AcrAB-TolC efflux pump in several bacterial species essentially as described (Coldham, et al., J Antimicrob Chemother, vol. 65, pp. 1655-1663, (2010)). […]

Escherichia coli 331 = assay: MIC assay (microbroth dilution) ± 25 μM EPI; type: cell-based; details: E. coli 331; for MIC (μg/ml) ± EPI: MBX2319: + 25 μM MBX2319; for MIC (μg/ml) ± EPI: PAβN: + 25 μM PAβN
Source text: as §1

[2] = tested on: Enterobacter aerogenes ATCC 13048; assay: MIC assay (microbroth dilution) ± 25 μM EPI; type: cell-based; details: for MIC (μg/ml) ± EPI: MBX2319: + 25 μM MBX2319; for MIC (μg/ml) ± EPI: PAβN: + 25 μM PAβN; for MIC: Klebsiella aerogenes, ATCC13048, no EPI, read-out: MIC (μg/ml) ± EPI: None
Source text: as §1

[3] = tested on: Escherichia coli ATCC 25922; assay: MIC assay (microbroth dilution) ± 25 μM EPI; type: cell-based; details: for MIC (μg/ml) ± EPI: MBX2319 / MIC (μg/ml) ± EPI: PAβN: E. coli ATCC 25922; for MIC (μg/ml) ± EPI: MBX2319: + 25 μM MBX2319; for MIC (μg/ml) ± EPI: PAβN: + 25 μM PAβN
Source text: as §1

[4] = tested on: Shigella flexneri ATCC 12022; assay: MIC assay (microbroth dilution) ± 25 μM EPI; type: cell-based; details: for MIC (μg/ml) ± EPI: PAβN: + 25 μM PAβN; for MIC: Shigella flexneri, ATCC12022, read-out: MIC (μg/ml) ± EPI: None
Source text: as §1

Escherichia coli AB1157 = assay: MIC assay (microbroth dilution) ± 25 μM EPI; type: cell-based; details: for MICs (μg/ml) ± EPIs: PAβN: + 25 μM PAβN
Source text: as §1

[5] = tested on: Klebsiella pneumoniae ATCC 700603; assay: MIC assay (microbroth dilution) ± 25 μM EPI; type: cell-based; details: for MIC (μg/ml) ± EPI: MBX2319: + 25 μM MBX2319; for MIC (μg/ml) ± EPI: PAβN: + 25 μM PAβN; for MIC: ATCC700603, no EPI, read-out: MIC (μg/ml) ± EPI: None
Source text: as §1

[6] = tested on: Escherichia coli 287 (AB1157, CIPR, overexpresses efflux); assay: microbe, parasite or virus in culture; type: cell-based
Source text: as §1

[7] = tested on: Escherichia coli 285 (AB1157, CIPR, overexpresses efflux); assay: microbe, parasite or virus in culture; type: cell-based
Source text: as §1

P. aeruginosa ATCC 27853 = assay: MIC assay (microbroth dilution) ± 25 μM EPI; type: cell-based, Pseudomonas aeruginosa; details: for MIC (μg/ml) ± EPI: PAβN: + 25 μM PAβN; for MIC: Pseudomonas aeruginosa, ATCC27853, no EPI, read-out: MIC (μg/ml) ± EPI: None
Source text: as §1

[8] = E. coli AB1157 (WT), geometric mean
[9] = Escherichia coli, read-out: MIC (μg/ml) with MBX2319 at concn (μM) of: 0

Row | Compound | MIC (μg/ml) ± EPI: MBX2319 [1] [µg/mL] | MIC (μg/ml) ± EPI: PAβN [1] [µg/mL] | MIC [1] [µg/mL] | MIC (μg/ml) ± EPI: MBX2319 (Escherichia coli 331) [µg/mL] | MIC (μg/ml) ± EPI: PAβN (Escherichia coli 331) [µg/mL] | MIC (μg/ml) ± EPI: MBX2319 [2] [µg/mL] | MIC (μg/ml) ± EPI: PAβN [2] [µg/mL] | MIC [2] [µg/mL] | MIC (μg/ml) ± EPI: MBX2319 [3] [µg/mL] | MIC (μg/ml) ± EPI: PAβN [3] [µg/mL] | MIC (μg/ml) ± EPI: PAβN ([4]; Shigella flexneri ATCC 12022) [µg/mL] | MIC [4] [µg/mL] | MICs (μg/ml) ± EPIs: PAβN (Escherichia coli AB1157; [8]) [µg/mL] | MIC (μg/ml) ± EPI: MBX2319 [5] [µg/mL] | MIC (μg/ml) ± EPI: PAβN [5] [µg/mL] | MIC [5] [µg/mL] | MIC (μg/ml) ± EPI: PAβN (P. aeruginosa ATCC 27853) [µg/mL] | MIC (P. aeruginosa ATCC 27853) [µg/mL] | other results
1 | CO/N=C(\C(=O)N[C@@H]1C(=O)N2C(C(=O)O)=C(COC(C)=O)CS[C@H]12)c1csc(N)n1 [CEF, cefotaxime] | 0.063 | 0.297 | 0.21 | 0.031 | 0.353 | 2.4 | 6.7 | 2 | 0.063 | 0.25 | 0.063 | 0.063 | 0.25 | 8 | 8 | 8 | 19 | 53.8 | MIC ([3]; Escherichia coli, ATCC25922, read-out: MIC (μg/ml) ± EPI: None): 0.074 µg/mL; MIC (μg/ml) ± EPI: MBX2319 ([4]; Shigella flexneri ATCC 12022, + 25 μM MBX2319): 0.031 µg/mL; MICs (μg/ml) ± EPIs: MBX2319 (Escherichia coli AB1157; E. coli AB1157 (WT), + 25 μM MBX2319, geometric mean): 0.022 µg/mL; MIC (Escherichia coli AB1157; Escherichia coli, AB1157, read-out: MICs (μg/ml) ± EPIs: None): 0.1 µg/mL; MIC (μg/ml) with MBX2319 at concn (μM) of: 6.25 ([6]; 287, MBX2319 6.25 μM): 0.063 µg/mL; MIC (μg/ml) with MBX2319 at concn (μM) of: 25 ([6]; 287, MBX2319 25 μM): 0.063 µg/mL; MIC (μg/ml) with MBX2319 at concn (μM) of: 50 ([6]; 287, MBX2319 50 μM): 0.063 µg/mL; MIC [6, 9]: 0.25 µg/mL; MIC (μg/ml) with MBX2319 at concn (μM) of: 3.13 ([7]; 285, MBX2319 3.13 μM): 0.063 µg/mL; MIC (μg/ml) with MBX2319 at concn (μM) of: 6.25 ([7]; 285, MBX2319 6.25 μM): 0.063 µg/mL; MIC (μg/ml) with MBX2319 at concn (μM) of: 25 ([7]; 285, MBX2319 25 μM): 0.031 µg/mL; MIC (μg/ml) with MBX2319 at concn (μM) of: 50 ([7]; 285, MBX2319 50 μM): 0.031 µg/mL; MIC [7, 9]: 0.25 µg/mL; MIC (μg/ml) ± EPI: MBX2319 (P. aeruginosa ATCC 27853; + 25 μM MBX2319): 8 µg/mL
2 | O=C(O)c1cn(C2CC2)c2cc(N3CCNCC3)c(F)cc2c1=O [Ciprofloxacin] | 0.008 | 0.044 | 0.031 | 32 | 128 | 0.008 | 0.031 | 0.037 | 0.005 | 0.022 | 0.031 | 0.031 | 0.031 | 0.088 | 0.25 | 0.29 | 0.149 | 0.21 | MIC (Escherichia coli 331; Escherichia coli, no EPI, read-out: MIC (μg/ml) ± EPI: None): 128 µg/mL

Reference: patent US9540389B2, “Antimicrobial potentiators” (priority 2013, dated 2017)
